According to patent publication US20250163057A1, “DCN-1 MODULATING COMPOUNDS AND METHODS OF USE THEREOF” (Cellarity, Inc., priority 2023, published 2025):
Like-named read-outs stand apart in the source and are kept apart here.

Assays:
[1] = target: DCN1 (DCUND1) protein PONY domain (Homo sapiens (Human), UniProt Q96GG9); assay: TR-FRET assay, DCN1 binding with FAM-labeled probe
Outline: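 Biotinylated DCN1 PONY domain, labeled with streptavidin-Tb, was competed against a FAM-labeled non-covalent DCN1 inhibitor probe in buffer with TritonX and 200 mM NaCl. Conditions were 5 nM DCN1 with 20 nM FAM-probe, or 0.31 nM DCN1 with 100 nM FAM-plus 800 nM unlabeled probe. The TR-FRET ratio was read at 1, 5 and 24 h (0.1% DMSO).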

[2] = system: Cullin-3 (CUL3) neddylation; assay: AlphaLISA assay for Cullin-3 (CUL3) neddylation in TF 1 cells; type: cell-based; settings: 3 hours treatment
Method: An AiphaLISA assay was performed to evaluate the ability of the compounds to suppress neddylation, which is downstream from DCN-1 and DCN-2. A stronger inhibition of DCN-1 and DCN-2 is expected to result in a suppression of neddylation as shown by a lower AlphaLISA signal. The AlphaLISA assay for detecting Cullin-3 (CUL3) neddylation was performed according to manufacturer instructions (Revvity, Hopkinton, MA). Briefly, TF 1 cells (ATCC) were plated in Iscove's Modified Dulbecco's Medium (IMIDM) without supplements in 384-well plates. These cells were treated with […] for 3 hours before lysing them with AlphaLISA lysis buffer, 5× (Revvity). To detect the level of CUL3 neddylation, biotinylated anti-NEDD8 antibody, was added followed by AlphaLISA Acceptor beads conjugated with anti-CUL3 antibody. After overnight incubation, Streptavidin-coated Alpha Donor beads were added and incubated for 1 hour. The AlphaLISA signal was then read on a VICTOR Nivo Multimode Microplate Reader (Revvity, Hopkinton, MA). The positive control was 1 μM DI-1548, which is reported to reduce CUL3 neddylation, also referred to as C-1 in Example 41 (Zhou et al. Nature Comm. 2021). The neddylation signal was normalized such that the percent inhibition is 0% for vehicle control and 100% for positive control. The dose-response curves were fitted with the Hill equation to obtain IC50 values (Graphpad Prism).

[3] = 24 hr after treatment with compound, read-out: TR FRET IC50 24 hr
[4] = TR FRET IC50 1 hr (nM), 1 hr after treatment with compound
[5] = read-out: TR FRET IC50 1 hr, 1 hr after treatment with compound

Sequence of DCN1 (DCUND1) protein PONY domain (Q96GG9 60-248): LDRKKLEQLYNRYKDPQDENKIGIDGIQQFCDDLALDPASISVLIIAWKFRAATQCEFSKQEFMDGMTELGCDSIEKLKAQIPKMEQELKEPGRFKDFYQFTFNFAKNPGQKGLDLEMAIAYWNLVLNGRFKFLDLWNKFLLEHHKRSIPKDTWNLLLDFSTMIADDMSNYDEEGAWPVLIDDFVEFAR

Row | SMILES | IC50 [1, 3] [nM] | IC50 [1, 4] [nM] | IC50 ([2]; Homo sapiens, TF-1, 3 h) [nM] | IC50 [1, 5] [nM] | IC50 [2] [nM]
1 | CCN1C(=O)[C@@H](NC(=O)c2cccc(C(F)(F)F)c2)[C@@H](c2ccc(F)cc2)c2c(C(F)CNC#N)nn(-c3ccccc3)c21 (mixture of isomers) [Compound I-679] | ≤ 200 | 200 to 1000 | ≤ 100 | – | –
2 | CCN1C(=O)[C@@H](NC(=O)c2cccc(C(F)(F)F)c2)[C@@H](c2ccccn2)c2c([C@@H](C)NC#N)nn(-c3ccccc3)c21 (mixture of isomers) [Compound I-680] | ≤ 200 | 200 to 1000 | ≤ 100 | – | –
3 | CCN1C(=O)[C@@H](NC(=O)c2cccc(C(F)(F)F)c2)[C@@H](c2ccc(F)cc2)c2c(C(=O)N3CC[C@H](NC)[C@H]3C#N)nn(C3CCOCC3)c21 (mixture of isomers) [Compound I-693, N-((4S,5S)-3-(trans-(2S,3S)-2-cyano-3-(methylamino)pyrrolidine-1-carbonyl)-7-ethyl-4-(4-fluorophenyl)-6-oxo-1-(tetrahydro-2H-pyran-4-yl)-4,5,6,7-tetrahydro-1H-pyrazolo[3,4-b]pyridin-5-yl)-3-(trifluoromethyl)benzamide] | ≤ 200 | – | ≤ 100 | ≤ 200 | –
4 | CCN1C(=O)[C@H](NC(=O)c2cccc(C(F)(F)F)c2)[C@@H](c2ccc(F)cc2)c2c(C3(N(C)C#N)CC3)nn(-c3ccccc3)c21 (racemic) [Compound I-76] | 1000 to 3000 | 1000 to 3000 | > 1000 | – | –
5 | CCN1C(=O)[C@H](NC(=O)c2cccc(C(F)(F)F)c2)[C@@H](c2ccc(F)cc2)c2c(C3(NC#N)CC3)nn(-c3ccccc3)c21 (racemic) [Compound I-84] | 1000 to 3000 | 1000 to 3000 | > 1000 | – | –
6 | CCN1C(=O)[C@@H](NC(=O)c2cccc(C(F)(F)F)c2)[C@@H](c2ccc(F)cc2)c2c(CNC(=O)/C=C(\C)C(=O)OC)nn(-c3ccccc3)c21 (racemic) [Compound I-150, rac-methyl (E)-4-((((4R,5R)-7-ethyl-4-(4-fluorophenyl)-6-oxo-1-phenyl-5-(3-(trifluoromethyl)benzamido)-4,5,6,7-tetrahydro-1H-pyrazolo[3,4-b]pyridin-3-yl)methyl)amino)-2-methyl-4-oxobut-2-enoate] | 200 to 1000 | 1000 to 3000 | > 1000 | – | –
7 | CCN1C(=O)[C@@H](NC(=O)c2cccc(C(F)(F)F)c2)[C@@H](c2ccc(F)cc2)c2c(CN(C#N)CCO)nn(-c3ccccc3)c21 (racemic) [Compound I-244, ˜{N}—[˜{rac}-(4˜{S},5˜{S})-3-[[cyano(2-hydroxyethyl)amino]methyl]-7-ethyl-4-(4-fluorophenyl)-6-oxo-1-phenyl-4,5-dihydropyrazolo[3,4-b]pyridine-5-yl]-3-(trifluoromethyl)benzamide] | 200 to 1000 | 1000 to 3000 | 100 to 1000 | – | –
8 | CCN1C(=O)[C@@H](NC(=O)c2cccc(C(F)(F)F)c2)[C@@H](c2ccc(F)cc2)c2c(C(=O)N(C)CC#N)nn(-c3ccccc3)c21 (racemic) [Compound I-398] | 1000 to 3000 | 1000 to 3000 | – | – | > 1000
9 | CCN1C(=O)[C@@H](NC(=O)c2cccc(C(F)(F)F)c2)[C@@H](c2ccc(F)cc2)c2c(C(=O)N(CC#N)CCN(C)C)nn(-c3ccccc3)c21 (racemic) [Compound I-448] | ≤ 200 | – | > 1000 | ≤ 200 | –
10 | CCN1C(=O)[C@@H](NC(=O)c2cccc(C(F)(F)F)c2)[C@@H](c2ccc(F)cc2)c2c(CN(C#N)CCN(C)C)nn(-c3ccccc3)c21 (racemic) [Compound I-486] | ≤ 200 | 200 to 1000 | ≤ 100 | – | –
11 | CCN1C(=O)[C@@H](NC(=O)c2cccc(C(F)(F)F)c2)[C@@H](c2ccc(F)cc2)c2c(NC(=O)C3=CCCN(C)C3)nn(-c3ccccc3)c21 (racemic) [Compound I-488] | ≤ 200 | 200 to 1000 | ≤ 100 | – | –
12 | CCN1C(=O)[C@H](NC(=O)c2cccc(C(F)(F)F)c2)[C@H](c2ccc(F)cc2)c2c(C(=O)N(CC#N)C3COC3)nn(-c3ccccc3)c21 (racemic) [Compound I-603] | ≤ 200 | 1000 to 3000 | 100 to 1000 | – | –
13 | CCN1C(=O)[C@@H](NC(=O)c2cccc(C(F)(F)F)c2)[C@@H](c2ccc(F)cc2)c2c(C(C)=O)nn(-c3ccccc3)c21 (racemic) [Compound I-649] | 1000 to 3000 | 1000 to 3000 | > 1000 | – | –
14 | CCN1C(=O)[C@@H](NC(=O)c2cccc(C(F)(F)F)c2)[C@@H](c2ccc(F)cc2)c2c(C(=O)N(C)C3(C#N)CCC3)nn(-c3ccccc3)c21 (racemic) [Compound I-689] | ≤ 200 | 1000 to 3000 | 100 to 1000 | – | –
15 | CCN1C(=O)[C@@H](NC(=O)c2cccc(C(F)(F)F)c2)[C@@H](C2CC2)c2c(C(=O)N3CC[C@@H](NC)[C@@H]3C#N)nn(C3CCOCC3)c21 (relative stereo) [Compound I-421, N-((4S,5S)-3-((2R*,3R*)-2-cyano-3-(methylamino)pyrrolidine-1-carbonyl)-4-cyclopropyl-7-ethyl-6-oxo-1-(tetrahydro-2H-pyran-4-yl)-4,5,6,7-tetrahydro-1H-pyrazolo[3,4-b]pyridin-5-yl)-3-(trifluoromethyl)benzamide] | ≤ 200 | 1000 to 3000 | 100 to 1000 | – | –
16 | CN1C(=O)[C@H](NC(=O)c2cccc(C(F)(F)F)c2)[C@H](C2CC2)c2c(C(=O)N3[C@H](C#N)C[C@H]4C[C@H]43)nn(C3CCOCC3)c21 (relative stereo) [Compound I-528, N-((4R*,5R*)-3-((1 R,3S,5R)-3-cyano-2-azabicyclo[3.1.0]hexane-2-carbonyl)-4-cyclopropyl-7-methyl-6-oxo-1-(tetrahydro-2H-pyran-4-yl)-4,5,6,7-tetrahydro-1H-pyrazolo [3,4-b]pyridin-5-yl)-3-(trifluoromethyl)benzamide] | 1000 to 3000 | 1000 to 3000 | > 1000 | – | –
17 | CCN1C(=O)[C@@H](NC(=O)c2cccc(C(F)(F)F)c2)[C@@H](c2ccc(F)cc2)c2c(C(=O)N3[C@H](C#N)C[C@H]4C[C@H]43)nn([C@H]3CCOC3)c21 (relative stereo) [Compound I-630, N-((4S*,5S*)-3-((1R,3S,5R)-3-cyano-2-azabicyclo[3.1.0]hexane-2-carbonyl)-7-ethyl-4-(4-fluorophenyl)-6-oxo-1-((S**)-tetrahydrofuran-3-yl)-4,5,6,7-tetrahydro-1H-pyrazolo[3,4-b]pyridin-5-yl)-3-(trifluoromethyl)benzamide] | ≤ 200 | ≤ 200 | ≤ 100 | – | –
18 | CN1C(=O)[C@@H](NC(=O)c2cccc(C(F)(F)F)c2)[C@@H](C2CC2)c2c(C(=O)N3[C@H](C#N)C[C@H]4C[C@H]43)nn(C3CCOCC3)c21 (relative stereo) [Compound I-650, N-((4S*,5S*)-3-((1R,3S,5R)-3-cyano-2-azabicyclo[3.1.0]hexane-2-carbonyl)-4-cyclopropyl-7-methyl-6-oxo-1-(tetrahydro-2H-pyran-4-yl)-4,5,6,7-tetrahydro-1H-pyrazolo[3,4-b]pyridin-5-yl)-3-(trifluoromethyl)benzamide] | ≤ 200 | ≤ 200 | ≤ 100 | – | –
